Source: patent US10172957B2, “Acid-labile lipophilic prodrugs of cancer chemotherapeutic agents” (priority 2011, dated 2019)
Where two headings read alike, the source gives them in different places.

What was measured:
[1] = test system: SK-N-AS cells (MDR− Neuroblastoma); test: MTS proliferation assay using SK-N-AS cells; type: cell-based; details: Homo sapiens, read-out: IC50 in SK-N-AS
Procedure: SK-N-AS cells were plated in appropriate growth medium at 5×10^3 per well in 100 μL in 96 well tissue culture plates, Falcon, one plate for each drug to be tested. Column 1 was blank; it contained medium, but no cells. The plates were incubated overnight at 37° C. in 5% CO2 to allow attachment.
Drug diluted in culture media was added to the cells at a concentration of 0.005 nM to 10 μM, in quadruplicate. After 48-72 hours of drug exposure, the MTS agent was added to all wells and incubated 1-6 hrs (37° C., 5% CO2), depending on cell type, as per CellTiter 96® AQueous Non-Radioactive Cell Proliferation Assay (MTS), Promega. Plates were processed using a Bio-Tek Synergy HT Multi-detection microtiter plate reader at 490 nanometer wavelength and data were processed with KC4V.3 software. Data plots of drug concentration vs. absorbance were plotted and the concentration resulting in 50% inhibition (IC50) was extrapolated for each of the tested compounds.
As summarized in Table 1, the IC50 value for each tested compound in the SK-N-AS cell line was determined. The clinical comparator drug, paclitaxel, was included in the experiment to allow comparison of the results of the candidate compounds to a clinically relevant standard in the taxane class.

CCRF-CEM (CEM) cells = test: MTT-based cytotoxicity assay, CEM; type: cell-based, human
Text: (§1) A second evaluation of the cytotoxicity of the acid labile, lipophilic molecular conjugates was undertaken.
(§2) These lines included a uterine sarcoma line, MES-SA, and its doxorubicin-resistant subline, MES-SA/Dx5. See W. G. Harker, F. R MacKintosh, and B. I. Sikic. Development and characterization of a human sarcoma cell line, MES-SA, sensitive to multiple drugs. Cancer Research 43: 4943-4950 (1983); W. G. Harker and B. I. Sikic. Multidrug (pleiotropic) resistance in doxorubicin-selected variants of the human sarcoma cell line MES-SA. Cancer Research 45: 4091 4096 (1985).
(§3) The second set of cells tested, CCRF-CEM or simply CEM, were derived from the blood of a patient with acute lymphoblastic leukemia. G. E. Foley, H. Lazarus, S. Farber, B. G. Uzman, B. A. Boone, and R E. McCarthy. Continuous culture of human lymphoblasts from peripheral blood of a child with acute leukemia. Cancer 18: 522-529 (1965). The subline CEM/VLB100 was developed to be resistant to up to vinblastine at 100 ng/ml. W. T. Beck, T. J. Mueller, and L. R. Tanzer. Altered surface membrane glycoproteins in Vinca alkaloid-resistant human leukemic lymphoblasts. Cancer Research 39: 2070-2076 (1979). Drug resistance is achieved by overexpression of the MDR1 gene. Resistance in the CEM subline designated CEM/VM-1-5, however, is “atypical.” M. K. Danks, J. C. Yalowich, and W. T. Beck. Atypical multiple drug resistance in a human leukemic cell line selected for resistance to teniposide (VM-26). Cancer Research 47: 1297-1301 (1987). The classes of drugs included in the “classic” multiple drug resistance phenotype are Vinca alkaloids, anthracyclines, epipodophyllotoxins and antibiotics. However, CEM/VM-1-5 cells retain sensitivity to the Vinca alkaloids despite resistance and cross-resistance to etoposide, anthracyclines and mitoxantrone. Danks, M. K.; Schmidt, C. A.; Cirtain, M. C.; Suttle, D. P.; Beck, W. T., Altered catalytic activity of and DNA cleavage by DNA topoisomerase II from human leukemic cells selected for resistance to VM-26. Biochemistry 1988, 27, 8861-8869. Resistance in CEM/VM-1-5 cells is effected by over expression of the […]. CEM, CEM/VLB100 and CEM/VM-1-5 cells were obtained from Dr. WT Beck, University of Illinois at Chicago.

[2] = test system: MES-SA uterine sarcoma line; test: MTT-based cytotoxicity assay, MES-SA; type: cell-based, human; details: read-out: IC50 MESSA (Hs)
Text: as §1, §2
(§4) MES-SA/Dx5 cells express high levels of ABCB1 (MDR1) mRNA and its gene product, the P-glycoprotein. MES-SA and MES-SA/Dx5 were purchased from the American Type Culture Collection (ATCC, Manassas, Va.).

CEM/VLB100 cells (MDR+) = test: cells; type: cell-based, human; details: for Degree of resistance (CEM/VLB100): IC50 of the resistant line divided by IC50 of sensitive CEM cells
Text: as §1, §2, §3

CEM/VM-1-5 cells (MDR+) = test: cells; type: cell-based, human; details: for Degree of resistance (CEM/VM-1-5): IC50 of the resistant line divided by IC50 of sensitive CEM cells
Text: A second evaluation of the cytotoxicity of the acid labile, lipophilic molecular conjugates was undertaken. […]
as §3

[3] = test system: MES-SA/Dx5 doxorubicin-resistant subline (MDR+); test: cells; type: cell-based, human; details: for Degree of resistance (MESSA/Dx5): IC50 of the resistant line divided by IC50 of sensitive MES-SA cells
Text: as §1, §2, §4

[4] = SK-N-AS (MDR− Neuroblastoma), MTS, 48-72 hours drug exposure
[5] = Homo sapiens, read-out: IC50 CEM/VM-1-5 (MDR + HTL), CEM/VM-1-5, MTT

For CCCCCCCCCCCCCCCCCCOC(CBr)O[C@@H]1C(=O)C=C(C)[C@@H]2C[C@H]3OC(=O)C(OC(=O)CC(O)(C(C)C)C(C)C)C4[C@@H](C)[C@@H](O)[C@]5(O)OC[C@@]43C5[C@@]12C (stereo partly drawn) [ART 472], the IC50 [1, 4] was 1.19 ± 0.5 nM.

For doxorubicin [reference compound], the IC50 (CCRF-CEM (CEM) cells; CEM human T-lymphoblastoid, MTT, read-out: IC50 CEM (HTL)) was 14 nM, the IC50 ([2]; MES-SA human sarcoma, MTT) was 2 nM and the IC50 (CEM/VLB100 cells (MDR+); CEM/VLB100, MTT, read-out: IC50 CEM/VLB100 (MDR + HTL)) was 2100 nM. For the same compound, the “Degree of resistance (CEM/VLB100)” value (CEM/VLB100 cells (MDR+)) was 150, the IC50 (CEM/VM-1-5 cells (MDR+); CEM/VM-1-5, MTT, read-out: IC50 CEM/VM-1-5 (MDR + HTL)) was 3060 nM and the “Degree of resistance (CEM/VM-1-5)” value (CEM/VM-1-5 cells (MDR+)) was 219. The “Degree of resistance (MESSA/Dx5)” value [3] was 49 and the IC50 ([3]; MES-SA/Dx5, MTT, read-out: IC50 MESSA/Dx5 (MDR + Hs)) was 97 nM.

CC1=CC(=O)[C@@H](OC(CBr)OC(C)(C)C)[C@]2(C)C3[C@]45CO[C@@]3(O)[C@H](O)[C@H](C)C4C(OC(=O)CC(O)(C(C)C)C(C)C)C(=O)O[C@@H]5C[C@@H]12 (stereo partly drawn) [ART 471] showed an IC50 [1, 4] of 262 ± 12 nM.

CC/C=C\C/C=C\C/C=C\C/C=C\C/C=C\C/C=C\CCCOC(=O)O[C@@H]1C(=O)C=C(C)[C@@H]2C[C@H]3OC(=O)C(OC(=O)CC(O)(C(C)C)C(C)C)C4[C@@H](C)[C@@H](O)[C@]5(O)OC[C@@]43C5[C@@]12C (stereo partly drawn) [ART 449] showed an IC50 [1, 4] of 4 ± 0.5 nM.

C=CCCCCOC(=O)O[C@@H]1C(=O)C=C(C)[C@@H]2C[C@H]3OC(=O)C(OC(=O)CC(O)(C(C)C)C(C)C)C4[C@@H](C)[C@@H](O)[C@]5(O)OC[C@@]43C5[C@@]12C (stereo partly drawn) [ART 448] gave an IC50 [1, 4] of 5 ± 0.7 nM.

Compound CCCCCCCCCCC1(C)OCC(COC(=O)O[C@@H]2C(=O)C=C(C)[C@@H]3C[C@H]4OC(=O)[C@H](OC(=O)CC(O)(C(C)C)C(C)C)[C@H]5[C@@H](C)[C@@H](O)[C@]6(O)OC[C@@]54[C@H]6[C@@]23C)O1 (stereo partly drawn) [ART 332] has an IC50 [1, 4] of 1.1 ± 0.5 nM.

Work on CC(=O)O[C@H]1C(=O)[C@@]2(C)[C@H]([C@H](OC(=O)c3ccccc3)[C@]3(O)C[C@H](OC(=O)[C@H](O)[C@@H](NC(=O)c4ccccc4)c4ccccc4)C(C)=C1C3(C)C)[C@]1(OC(C)=O)CO[C@@H]1C[C@@H]2O [Paclitaxel, paclitaxel, reference compound] yielded an IC50 ([1]; SK-N-AS) of 0.05 ± 0.01 nM, an IC50 ([2]; Homo sapiens, MES-SA) of 9 ± 7 nM and an IC50 (CEM/VM-1-5 cells (MDR+); [5]) of under 11 nM. For the same compound, the “Degree of resistance (CEM/VM-1-5)” value (CEM/VM-1-5 cells (MDR+)) was 4 and the “Degree of resistance (MESSA/Dx5)” value [3] was 3105 ± 2416.

CCOC(CBr)O[C@@H]1C(=O)C=C(C)[C@@H]2C[C@H]3OC(=O)C(OC(=O)CC(O)(C(C)C)C(C)C)C4[C@@H](C)[C@@H](O)[C@]5(O)OC[C@@]43C5[C@@]12C (stereo partly drawn) [ART 470] showed an IC50 [1, 4] of 349 ± 15 nM.

In the case of CC[C@]1(O)C[C@@H]2CN(CCc3c([nH]c4ccccc34)[C@@](C(=O)OC)(c3cc4c(cc3OC)N(C)[C@H]3[C@@](O)(C(=O)OC)[C@H](OC(C)=O)[C@]5(CC)C=CCN6CC[C@]43[C@@H]65)C2)C1 [Vinblastine, vinblastine, reference compound], the IC50 (CCRF-CEM (CEM) cells; Homo sapiens, CCRF-CEM, read-out: IC50 CEM (HTL), CEM human T-lymphoblastoid, MTT) is reported as 1 ± 0.8 nM, the IC50 ([2]; Homo sapiens, MES-SA) is reported as 1.1 ± 0.3 nM and the “Degree of resistance (CEM/VLB100)” value (CEM/VLB100 cells (MDR+)) is reported as 255 ± 127. For the same compound, the IC50 (CEM/VM-1-5 cells (MDR+); [5]) was 1.3 ± 0.9 nM, the “Degree of resistance (CEM/VM-1-5)” value (CEM/VM-1-5 cells (MDR+)) was 1.2 ± 0.07 and the IC50 ([3]; Homo sapiens, MES-SA/Dx5, read-out: IC50 MESSA/Dx5 (MDR + Hs)) was 43 ± 12 nM. The “Degree of resistance (MESSA/Dx5)” value [3] was 38.5 ± 0.7.

CC1=CC(=O)[C@@H](OC(CBr)OC2CCCCC2)[C@]2(C)C3[C@]45CO[C@@]3(O)[C@H](O)[C@H](C)C4C(OC(=O)CC(O)(C(C)C)C(C)C)C(=O)O[C@@H]5C[C@@H]12 (stereo partly drawn) [ART 473] gave an IC50 [1, 4] of 12.6 ± 0.9 nM.
